Target: T1, CFTR (Homo sapiens, UniProt P13569, DEL508-508)
T1 construct: Primary CF airway epithelial cells were obtained from the UNC Cystic Fibrosis Tissue Procurement and Cell Culture Core; host or cells: primary CF airway epithelial cells, differentiated at the air-liquid interface
Experiment: Equivalent current assay in primary CF airway epithelial cells (NAUC, combination with 1st site corrector FDL169 or VX-809)
Format: cell-based
Conditions: 37° C., 24 h; for Nauc @ 3 μM: test compound 3 μM in combination with 1st site corrector VX-809 (3 μM); for Nauc @ 10 μM: test compound 10 μM in combination with 1st site corrector VX-809 (3 μM); for Nauc @ 1 μM: test compound 1 μM in combination with 1st site corrector VX-809 (3 μM)

T1 sequence (P13569 with tags, fused parts or gaps DEL508-508): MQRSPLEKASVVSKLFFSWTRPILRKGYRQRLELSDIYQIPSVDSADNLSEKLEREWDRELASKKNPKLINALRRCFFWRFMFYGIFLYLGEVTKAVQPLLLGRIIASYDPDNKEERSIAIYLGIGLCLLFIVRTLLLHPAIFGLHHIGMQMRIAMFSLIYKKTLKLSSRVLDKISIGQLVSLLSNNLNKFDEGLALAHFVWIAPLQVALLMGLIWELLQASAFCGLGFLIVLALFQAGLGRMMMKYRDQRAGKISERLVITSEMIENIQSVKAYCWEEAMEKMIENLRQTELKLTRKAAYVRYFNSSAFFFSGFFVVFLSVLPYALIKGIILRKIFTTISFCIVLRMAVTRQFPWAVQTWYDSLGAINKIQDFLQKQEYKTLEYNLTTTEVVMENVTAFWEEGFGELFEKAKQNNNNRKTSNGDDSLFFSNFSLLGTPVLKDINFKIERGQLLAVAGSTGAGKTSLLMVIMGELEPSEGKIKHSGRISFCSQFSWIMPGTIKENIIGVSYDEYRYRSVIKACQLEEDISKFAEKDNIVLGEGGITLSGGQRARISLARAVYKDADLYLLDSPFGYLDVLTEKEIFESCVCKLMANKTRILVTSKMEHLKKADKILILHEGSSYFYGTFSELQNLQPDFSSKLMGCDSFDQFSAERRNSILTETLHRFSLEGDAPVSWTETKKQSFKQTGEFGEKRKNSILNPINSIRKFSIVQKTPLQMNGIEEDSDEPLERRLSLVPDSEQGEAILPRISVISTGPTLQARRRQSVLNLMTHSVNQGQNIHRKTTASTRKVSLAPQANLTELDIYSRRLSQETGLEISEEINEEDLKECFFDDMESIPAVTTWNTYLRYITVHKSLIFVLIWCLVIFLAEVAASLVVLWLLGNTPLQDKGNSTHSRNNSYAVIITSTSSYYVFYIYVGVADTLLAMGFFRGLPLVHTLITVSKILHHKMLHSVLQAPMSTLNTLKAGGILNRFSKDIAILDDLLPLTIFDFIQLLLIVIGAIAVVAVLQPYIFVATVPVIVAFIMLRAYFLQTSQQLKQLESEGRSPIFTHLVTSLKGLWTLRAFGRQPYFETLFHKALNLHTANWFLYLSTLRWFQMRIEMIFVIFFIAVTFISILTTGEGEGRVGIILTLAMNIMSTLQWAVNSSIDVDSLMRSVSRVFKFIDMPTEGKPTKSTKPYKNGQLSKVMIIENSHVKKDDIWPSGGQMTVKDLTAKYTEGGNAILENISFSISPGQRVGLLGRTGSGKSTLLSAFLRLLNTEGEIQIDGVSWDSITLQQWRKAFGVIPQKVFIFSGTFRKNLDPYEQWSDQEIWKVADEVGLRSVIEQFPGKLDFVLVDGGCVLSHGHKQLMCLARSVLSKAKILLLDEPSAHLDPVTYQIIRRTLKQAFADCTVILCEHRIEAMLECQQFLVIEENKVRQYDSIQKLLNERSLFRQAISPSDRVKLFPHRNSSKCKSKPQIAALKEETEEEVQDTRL

Row | SMILES | Nauc @ 3 μM | Nauc @ 10 μM | Nauc @ 1 μM
1 | O=C(Nc1cc(C(F)(F)F)ccn1)C1C2CCCN2C2(C(=O)Nc3c(Cl)cc(Cl)cc32)C1C(=O)O (centres unmarked) [Example 10] | ++ (NAUC “++” refers to an observed NAUC 170-140% of positive control) | ++ (NAUC “++” refers to an observed NAUC 170-140% of positive control) | –
2 | CN(O)C(=O)C1C(C(=O)N(C)c2cc(Cl)cc(Cl)c2)C2CC(F)(F)CN2C12C(=O)Nc1c(Cl)cc(Cl)cc12 (single isomer, unassigned) [Example 229b, 5,7-dichloro-N1′-(3,5-dichlorophenyl)-6′,6′-difluoro-N2′-hydroxy-N1′,N2′-dimethyl-2-oxo-1′,2′,5′,6′,7′,7a′-hexahydrospiro[indoline-3,3′-pyrrolizine]-1′,2′-dicarboxamide] | – | + (NAUC “+” refers to an observed NAUC <140% of positive control) | –
3 | Cn1nc(NC(=O)[C@H]2[C@H]3CC(F)(F)CN3[C@]3(C(=O)Nc4c(Cl)cc(Cl)cc43)[C@H]2C(=O)O)c2cccnc21 [Example 123] | + (NAUC “+” refers to an observed NAUC <140% of positive control) | – | + (NAUC “+” refers to an observed NAUC <140% of positive control)
4 | Cc1ccccc1C(F)(F)C1NC2(C(=O)Nc3c(Cl)cc(Cl)cc32)C(C(=O)O)C1C(=O)Nc1cc(Cl)cc(Cl)c1 (centres unmarked) [Example 61] | +++ (NAUC “+++” refers to an observed NAUC>170% of positive control) | +++ (NAUC “+++” refers to an observed NAUC>170% of positive control) | –
5 | O=C(Nc1ccc2ncccc2c1)[C@H]1[C@H]2CC(F)(F)CN2[C@]2(C(=O)Nc3c(Cl)cc(Cl)cc32)[C@H]1C(=O)O [Example 120] | + (NAUC “+” refers to an observed NAUC <140% of positive control) | + (NAUC “+” refers to an observed NAUC <140% of positive control) | + (NAUC “+” refers to an observed NAUC <140% of positive control)
6 | CN(C(=O)[C@H]1[C@H]2CC(F)(F)CN2[C@]2(C(=O)Nc3c(Cl)cc(Cl)cc32)[C@H]1C(=O)O)c1cc(Cl)cc(Cl)c1F (single isomer, unassigned) [Example 265b] | + (NAUC “+” refers to an observed NAUC <140% of positive control) | + (NAUC “+” refers to an observed NAUC <140% of positive control) | + (NAUC “+” refers to an observed NAUC <140% of positive control)
7 | CON(C)C(=O)[C@H]1[C@@H](C(=O)Nc2cc(Cl)cc(Cl)c2)[C@H]2CC(F)(F)CN2[C@]12C(=O)Nc1c(Cl)cc(Cl)cc12 [Example 227, (1′R,2′S,3R,7a′R)-5,7-dichloro-N1′-(3,5-dichlorophenyl)-6′,6′-difluoro-N2′-methoxy-N2′-methyl-2-oxo-1′,2′,5′,6′,7′,7a′-hexahydrospiro [indoline-3,3′-pyrrolizine]-1′,2′-dicarboxamide] | ++ (NAUC “++” refers to an observed NAUC 170-140% of positive control) | ++ (NAUC “++” refers to an observed NAUC 170-140% of positive control) | + (NAUC “+” refers to an observed NAUC <140% of positive control)
8 | CC(C)(C)c1cccc(C(C)(C)CNC(=O)[C@H]2[C@H]3CC(F)(F)CN3[C@]3(C(=O)Nc4c(Cl)cc(Cl)cc43)[C@H]2C(=O)O)c1 (racemic) [Example 288b, rac-(1′R,2′S,3R,7a′R)-1′-((2-(3-(tert-butyl)phenyl)-2-methylpropyl)carbamoyl)-5,7-dichloro-6′,6′-difluoro-2-oxo-1′,2′,5′,6′,7′,7a′-hexahydrospiro[indoline-3,3′-pyrrolizine]-2′-carboxylic acid] | – | + (NAUC “+” refers to an observed NAUC <140% of positive control) | –
